“And” between values parts separate entries of the source, which are not always exact repeats. Identical values can stand only once.
Tests used:
[1] = test system: neutrophils isolated from peripheral blood; experiment: Neutrophil chemotaxis, modified Boyden chamber; format: cell-based; conditions: percentage neutrophils on the membrane compared to positive control 10^-8 M FMLP; 90 minutes
Experimental: Neutrophils chemotaxis was measured with neutrophils isolated from peripheral blood using Percoll density centrifugation (density: 1.082 g/ml). The cells were resuspended at a concentration of 2.5×10^6 cells/ml in chemotaxis medium (20 mM N-2-hydroxyethylpiperazine-N′-2-ethanesulfonic acid (HEPES buffer) HEPES, 132 mM NaCl, 6 mM KCl, 1.2 mM KH2PO4, 1 mM MgSO4, 5.5 mM glucose, 0.1 mM CaCl2 and 0.5% (wt/vol) human serum albumin [Central Laboratory of the Netherlands Red Cross Blood Transfusion Service (CLB), Amsterdam, The Netherlands] diluted 1:1 with serum-free RPMI. The chemotactic activity of the compounds was assessed using a modified Boyden Camber technique. Briefly, 26 μl stimuli diluted in HEPES buffer was added to the wells of the lower compartment, and 50 μl of neutrophil suspension (2.5×10^6 cells/ml) was added to the upper compartment. The compartments were separated by two filters: a lower filter with a pore size of 0.45 μm (Millipore Products, Bedford, Mass.) and an upper filter with a pore size of 8 μm (Sartorius Filter, San Francisco, Calif.). After incubation for 90 minutes at 37° C., the upper filters were removed, fixed in ethanol-butanol (80:20, vol/vol), and stained with Weigert solution. To determine neutrophil chemotactic activity, neutrophils were counted in six random high-power fields (×400), and the percentage neutrophils on the membrane as compared to the positive control (10^-8 M N-formylmethionyl-leucyl-phenylalanine (FMLP, Sigma) was calculated.

bacterial toxin LPS [2] = experiment: LPS neutralization, limulus amoebocyte lysate (LAL) assay; format: biochemical; conditions: ±SD; for 50%-LPS inhibition, Average: average of LAL-assay and WB-assay
Experimental: (§1) Compounds prepared according to example 1 were tested for their capability to neutralize the bacterial toxin LPS with a limulus amoebocyte lysate (LAL) assay and with a whole blood (WB) assay. LTA neutralization was also measured with a whole blood assay. Peptide LL-37 was used as a positive control. The peptide concentration whereby 50% LPS is neutralized (50% inhibition) was used as a measure of the peptide's activity. These concentration values were as in table 1. The differences between the compounds within each assay were not statistically significant.

bacterial toxin LPS [3] = experiment: LPS neutralization, whole blood (WB) assay; format: cell-based; conditions: ±SD
Experimental: as §1

[4] = test system: peripheral blood mononuclear cells (PBMC); experiment: γ-IFN Elispot assay (cytokine secretion); format: cell-based; conditions: for γ-IFN Elispot: fraction of positive stimulation indices (positive: >2), PBMC, 48 hours of culture
Experimental: (§2) The compounds prepared according to example 1 were tested for their therapeutically undesirable immunogenic activity by using Elispot, T-cell proliferation, ERK-activation, and neutrophil chemotaxis assays. The Elispot assay is applicable to determine effects of drugs, chemicals or other compounds on cytokine secretion in vitro, thereby providing data on their putative modulatory effects on immune function in vivo. The results of the assay are given as fraction of positive responses to IFN-gamma. […] Cytokines are direct mediators of inflammation and influence the progress and direction of many immunological reactions. Perturbation of the balance in cytokine production is widely recognized as a critical factor in several disease states. This balance is already disturbed in the case of conditions such as otitis media with effusion and sinusitis. T cell proliferation is also not favorable in this situation, because this will also stimulate the immune response that is already out of control.
(§3) For T cell proliferation, 150,000 peripheral blood mononuclear cells (PBMC) were cultured in the absence or presence of 10 μg/ml of the compounds for 5 days in 96 well round bottom plates (Costar Inc. Cambridge, Mass.) in a final volume of 150 μl IMDM complete. As a positive control, PBMC were cultured in the presence of 25 U/ml recombinant IL-2. During the final 20 hours of culture, PBMC were pulsed with [3H] thymidine (0.5 microCi/well), after which ^3H-incorporation was measured by liquid scintillation counting. For detection of the T cell cytokines IFN and IL-10 by Elispot analysis, 1.5×10^6 PBMC were cultured in 0.5 ml IMDM complete in the absence or presence of various concentrations of synthetic peptide. As a positive control PBMC were stimulated by 10 μg/ml poke weed mitogen (PWM). After 48 hours of culture, PBMC were harvested by gently rinsing the wells with warm IMDM to collect non-adherent cells, which were washed in a large volume of IMDM. PBMC were subsequently plated on antibody-precoated ELISA plates and cultured for 5 hours in IMDM supplemented with 2% pooled human AB serum at 37° C. 5% CO2, after which the plates were developed according to the manufacturer's protocol (U-CyTech, Utrecht, The Netherlands). Spots were counted on an Olympus microscope and analyzed with Olympus Micro Image 4.0 software (Paes Nederland, Zoeterwoude, The Netherlands). The final results are expressed as fraction of positive stimulation indices (positiv: >2).

[5] = test system: peripheral blood mononuclear cells (PBMC); experiment: T cell proliferation ([3H] thymidine incorporation); format: cell-based; conditions: fraction of positive stimulation indices (positive: >2), 10 μg/ml, 5 days
Experimental: as §2, §3

lipoteichoic acid (LTA) = experiment: LTA neutralization, whole blood (WB) assay; format: cell-based; conditions: ±SD, n = 3
Experimental: as §1

[6] = Acute eye irritation/corrosion study; format: in vivo, rabbit; conditions: 0.1 ml peptide solution 2 mg/ml (pH7.5) instilled into one eye
Experimental: (§4) Compound P60.4Ac was prepared according to example 1 and tested for its tolerability in vivo. More specifically, its potential for causing skin and eye irritation was evaluated in rabbits, whereas its ototoxicity was studied in a guinea pig model. Furthermore, its systemic toxicity was assessed after intravenous administration.
(§5) For the skin and eye irritation tests, three rabbits were exposed to 0.5 ml phosphate buffered peptide solution (2 mg/ml), applied onto clipped skin for 4 hours using a semi-occlusive dressing. Observations were made 1, 24, 48, and 72 hours after exposure. Single samples of 0.1 ml of phosphate buffered (pH7.5) peptide solution (2 mg/ml) were instilled into one eye of each of three rabbits to perform an acute eye irritation/corrosion study. Observations were made 1, 24, 48, and 72 hours after instillation.

Skin irritation test = format: in vivo, rabbit; conditions: 0.5 ml peptide solution 2 mg/ml on clipped skin for 4 hours, semi-occlusive; observed 1-72 hours
Experimental: as §4, §5

[7] = Systemic single and repeated dose toxicity, intravenous; format: in vivo, rat; conditions: rats
Experimental: as §4
The systemic toxicity of P60.4Ac was assessed in a single and repeated dose toxicity study in rats. The peptide was administered daily intravenously in escalating doses. In this phase, the Maximum Tolerated Dose (MTD) was established. Repeated dose toxicity was also studied in the MTD phase. In the dose escalation phase, 9 rats were divided in three groups and received 0.4, 2 or 8 mg/kg/day for two days. Clinical signs were recorded twice daily on days of dosing and one day after dosing, body weights were recorded prior to the first dose and one day after dosing. In the MTD phase, 5 female and 5 male rats received 8 mg/kg/day for 5 following days. Clinical signs were recorded twice daily on days of dosing, body weight on day 1 and 6. Clinical laboratory investigations were performed prior to necropsy. Macroscopy was performed at termination of the MTD phase.

[8] = Ototoxicity, auditory brainstem response (ABR) after round window membrane application; format: in vivo, guinea pig; conditions: for Δ presurgery (ABR threshold change) / ABR treshold (dB): cisplatin 0.66 mg/ml in PBS, P60.4Ac 2 mg/ml in phosphate buffer; for ABR treshold (dB): round window membrane
Experimental: For evaluating the ototoxicity, nine healthy male albino guinea pigs (500-1200 g), free of external ear pathology, were used. Animals were anesthetized with intraperitoneal injections of ketamine 40 mg/kg and rompun 10 mg/kg. After control auditory testing was performed, the auditory bullae were surgically opened to apply a small piece of spongostan to the round window membrane (RWM) and various solutions (approximately 10 μL) were added on the spongostan. The skin was sutured closed and follow-up auditory testing was performed.
The guinea pigs were divided into three groups, each consisting of two animals to be treated and one control animal. Test and control formulations were administered onto the RWM of the right ears, while the left ears remained untreated. […] Group 2 received the peptide (2 mg/ml) in phosphate buffer (pH7.5) and group 3 received the peptide (2 mg/ml) in formulation solution comprising 7% macrogol 10,000 in isotonic sodium chloride solution preserved with 0.02% benzalkonium chloride and 0.1% Na2EDTA, buffered at pH 5.5 with phosphate.
Auditory brainstem response (ABR) was performed prior to drug administration and directly after surgery and 3, 7, 14 and 22 days later, using a computer-based signal averaging system (Tucker-Davis Technology, Alucha, Fla., USA). Guinea pigs were anesthetized and an insert earphone was placed into the external ear canal. […] Ground electrodes were placed over the neck muscles. ABRs were recorded in an electrically shielded, double-walled, radio-frequency-shielded sound chambre in response to 10 ms tone bursts at 1 kHz. Stimulus intensities were measured and expressed as dB. ABR treshold was defined as the lowest intensity capable of eliciting a replicable, visually detectable response. The post-treatment ABR tresholds were compared to pre-treatment ABR tresholds.

[9] = i.v. 0.4, 2 or 8 mg/kg/day for two days

Row | Substance | Chemotaxis (%) [1] | 50%-LPS inhibition, LAL-assay (bacterial toxin LPS [2]) | 50%-LPS inhibition, Average (bacterial toxin LPS [2]) | 50%-LPS inhibition, WB-assay (bacterial toxin LPS [3]) | γ-IFN Elispot [4] | T cell proliferation [5] | 50%-LTA inh. (lipoteichoic acid (LTA)) | further results
1 | IGKEFKRIVERIKRFLRELVRPLR [Compound P60.4] | 0 ± 0% | 1.7 ± 0.6 µg/mL | 1.8 ± 0.6 µg/mL | 2.1 ± 0.6 µg/mL | 3/8 | 0/8 | 2.0 ± 1.3 µg/mL | immune response (summary of table 2) ([4]; compared with natural peptide LL-37): very low immune response
2 | Ac-IGKEFKRIVERIKRFLRELVRPLR-NH2 [Compound P60.4Ac] | – | – | – | – | – | – | – | redness of the conjunctivae, time to complete resolution after instillation [6]: ≤ 24 h; skin irritation (Skin irritation test): no skin irritation was detectable; clinical signs, body weight, hematology, clinical biochemistry and macroscopic examination, MTD phase ([7]; i.v. 8 mg/kg/day for 5 days): no clear peptide related findings; mortality, MTD phase ([7]; i.v. 8 mg/kg/day for 5 days): no mortality occurred; clinical signs and body weight, dose escalation phase [7, 9]: no clear deviations; mortality, dose escalation phase [7, 9]: no mortality occurred; Δ presurgery (ABR threshold change) ([8]; 3 days): −2 dB; ABR treshold (dB) ([8]; 3 days): 70 dB; Δ presurgery (ABR threshold change) ([8]; 7 days): 0 dB; ABR treshold (dB) ([8]; 7 days): 72 dB; Δ presurgery (ABR threshold change) ([8]; 14 days): −12 dB; ABR treshold (dB) ([8]; 14 days): 60 dB; Δ presurgery (ABR threshold change) ([8]; 22 days after surgery): −7 dB; ABR treshold (dB) ([8]; 22 days): 65 dB; ABR threshold change ([8]; peptide 2 mg/ml in formulation solution (7% macrogol 10,000, isotonic NaCl, benzalkonium chloride, Na2EDTA, pH 5.5), two animals): 2 dB and 1 dB; Δ presurgery (ABR threshold change) ([8]; postsurgery): −2 dB; ABR treshold (dB) ([8]; postsurgery, 1 kHz, one animal per column): 70 dB
3 | IGKEFKRIVQRIKDFLRNLVPRTE [Compound P60] | 76 ± 39% | 1.5 ± 0.5 µg/mL | 1.5 ± 0.3 µg/mL | 1.4 ± 0.1 µg/mL | 1/8 | 0/8 | 2.1 ± 0.7 µg/mL | –
4 | LL-37 [reference compound] | 84 ± 17% | 1.3 ± 0.2 µg/mL | 1.3 ± 0.2 µg/mL | 1.2 ± 0.2 µg/mL | 4/8 | 4/8 | 1.6 ± 0.5 µg/mL | –
5 | IGKEFKRIVQRIKDFLRNLVPRTE [Compound P60.Ac] | 61 ± 36% | 1.8 ± 0.8 µg/mL | 2.0 ± 0.8 µg/mL | 2.4 ± 0.5 µg/mL | 3/8 | 0/8 | 2.1 ± 0.1 µg/mL | –
